Laboratory results taken from patent US11000033B2, “Ketone or oxime compound, and herbicide” (NISSAN CHEMICAL CORPORATION, priority 2014, dated 2021).

How the values were obtained:
Type in all cases: in vivo
[1] = test system: Echinochloa oryzacola Vasing.; test: Test Example 1: herbicidal activity, application before weed generation in submerged conditions (symbol A); conditions: application herbicide amount 320 g/ha
Method in brief: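 Weeds are sown into submerged alluvial soil alongside transplanted 2.5-leaf rice, and the compound, as an emulsion diluted to a set rate, is applied onto the water before emergence. Rating on the 0–5 herbicidal-ratio scale follows 3 weeks of greenhouse growth at 25–30 °C.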

transplanted rice plant = test: Test Example 1: effect on crop, application before weed generation in submerged conditions (symbol a); conditions: application herbicide amount 320 g/ha
Method in brief: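 Alluvial soil pots flooded to 4 cm water, sown with Echinochloa oryzacola, Scirpus juncoides and Monochoria vaginalis, then transplanted with 2.5 leaf stage rice seedlings; pre-emergence application. Greenhouse 25° C. to 30° C.; scored 0–5 by herbicidal ratio 3 weeks after application.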

[2] = test system: directly sowed rice plant; test: Test Example 3: effect on crop by foliage application, Wagner pot (symbol b); conditions: application herbicide amount 320 g/ha, Table 24
Method in brief: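 Alluvial soil in a 1/10000-are Wagner pot was flooded to a water depth of 0.1–0.5 cm. Echinochloa crus-galli var. crus-galli, Leptochloa chinensis, Cyperus difformis and rice were sown into it and grown in a greenhouse at 25–30 °C.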

[3] = test system: Echinochloa crus-galli var. crus-galli; test: Test Example 4: herbicidal effect by soil treatment (symbol H); conditions: for Herbicidal effect grade, H: Echinochloa crus-galli var. crus-galli: application herbicide amount 320 g/ha
Method in brief: (§1)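 Seeds were sown in sterilized diluvial soil, covered with about 1.5 cm of soil, and the soil surface was sprayed with a water-diluted emulsion of the compound at a predetermined rate. Plants grew in a greenhouse at 25° C. to 30° C.; effects were scored visually 3 weeks after application.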

Apera spica-venti = test: Test Example 4: herbicidal effect by soil treatment (symbol L); conditions: for Herbicidal effect grade, L: Apera spica-venti: application herbicide amount 320 g/ha
Method in brief: as §1

Abutilon theophrasti [4] = test: Test Example 4: herbicidal effect by soil treatment (symbol M); conditions: for Herbicidal effect grade, M: Abutilon theophrasti: application herbicide amount 320 g/ha
Method in brief: as §1

Chenopodium album = test: Test Example 4: herbicidal effect by soil treatment (symbol O); conditions: for Herbicidal effect grade, O: Chenopodium album: application herbicide amount 320 g/ha
Method in brief: as §1

Galium spurium = test: Test Example 4: herbicidal effect by soil treatment (symbol Q); conditions: for Herbicidal effect grade, Q: Galium spurium: application herbicide amount 320 g/ha
Method in brief: as §1

soybean [5] = test: Test Example 4: effect on crop by soil treatment (symbol d); conditions: for Effect on crop grade, d: soybean: application herbicide amount 320 g/ha
Method in brief: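 Seeds were sown in spots on sterilized diluvial soil in a plastic box and covered with about 1.5 cm of soil. Plants were then grown in a greenhouse at 25° C. to 30° C.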

Digitaria ciliaris = test: Test Example 5: herbicidal effect by foliage application, plastic box (symbol F); conditions: 320 g/ha, 3 weeks after application
Method in brief: (§2)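 Seeds were sown in sterilized diluvial soil, covered with about 1.5 cm of soil and grown 14 days in a greenhouse at 25° C. to 30° C. An emulsifiable formulation diluted in water to a set rate was sprayed over foliage, and injury was scored 3 weeks later.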

Avena fatua = test: Test Example 5: herbicidal effect by foliage application, plastic box (symbol I); conditions: 320 g/ha, 3 weeks after application
Method in brief: as §2

Abutilon theophrasti [6] = test: Test Example 5: herbicidal effect by foliage application, plastic box (symbol M); conditions: 320 g/ha, 3 weeks after application
Method in brief: as §2

Veronica persica = test: Test Example 5: herbicidal effect by foliage application, plastic box (symbol R); conditions: 320 g/ha, 3 weeks after application
Method in brief: as §2

corn = test: Test Example 5: effect on crop by foliage application, plastic box (symbol c); conditions: 320 g/ha, 3 weeks after application
Method in brief: (§3)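 Greenhouse test at 25° C. to 30° C. Seeds of crops and weeds were spot-sown in boxes of sterilized diluvial soil under roughly 1.5 cm soil cover, then grown for foliage treatment.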

soybean [7] = test: Test Example 5: effect on crop by foliage application, plastic box (symbol d); conditions: 320 g/ha, 3 weeks after application
Method in brief: as §3

SMILES	A (Echinochloa oryzacola Vasing.) herbicidal effect grade [1]	a (transplanted rice plant) effect on crop grade (transplanted rice plant)	b (directly sowed rice plant) effect on crop grade [2]	Herbicidal effect grade, H: Echinochloa crus-galli var. crus-galli [3]	Herbicidal effect grade, L: Apera spica-venti (Apera spica-venti)	Herbicidal effect grade, M: Abutilon theophrasti (Abutilon theophrasti [4])	Herbicidal effect grade, O: Chenopodium album (Chenopodium album)	Herbicidal effect grade, Q: Galium spurium (Galium spurium)	Effect on crop grade, d: soybean (soybean [5])	F: Digitaria ciliaris, herbicidal effect grade (Digitaria ciliaris)	I: Avena fatua, herbicidal effect grade (Avena fatua)	M: Abutilon theophrasti, herbicidal effect grade (Abutilon theophrasti [6])	R: Veronica persica, herbicidal effect grade (Veronica persica)	c: corn, effect on crop grade (corn)	d: soybean, effect on crop grade (soybean [7])	other results
CC(CC1CC(OC(=O)N2CCOCC2)=C(c2c(C)cc(-c3ccc(Cl)cc3)cc2C)C1=O)=NOCC(F)(F)F (mixture of isomers) [9-025]	5 (Herbicidal ratio of 90% or more (almost completely withered))	0 (Herbicidal ratio of 5% or lower (almost no effect))	2 (Herbicidal ratio of 20% or higher and lower than 40%)	0 (Herbicidal ratio of 5% or lower (almost no effect))	0 (Herbicidal ratio of 5% or lower (almost no effect))	0 (Herbicidal ratio of 5% or lower (almost no effect))	0 (Herbicidal ratio of 5% or lower (almost no effect))	0 (Herbicidal ratio of 5% or lower (almost no effect))	0 (Herbicidal ratio of 5% or lower (almost no effect))	5 (Herbicidal ratio of 90% or more (almost completely withered))	3 (Herbicidal ratio of 40% or higher and lower than 70%)	0 (Herbicidal ratio of 5% or lower (almost no effect))	0 (Herbicidal ratio of 5% or lower (almost no effect))	5 (Herbicidal ratio of 90% or more (almost completely withered))	0 (Herbicidal ratio of 5% or lower (almost no effect))	
CC(CC1CC(OC(=O)COc2ccccc2)=C(c2c(C)cc(-c3ccc(Cl)cc3)cc2C)C1=O)=NOCC(F)(F)F (mixture of isomers) [9-027]	5 (Herbicidal ratio of 90% or more (almost completely withered))	5 (Herbicidal ratio of 90% or more (almost completely withered))	3 (Herbicidal ratio of 40% or higher and lower than 70%)	5 (Herbicidal ratio of 90% or more (almost completely withered))	5 (Herbicidal ratio of 90% or more (almost completely withered))	0 (Herbicidal ratio of 5% or lower (almost no effect))	3 (Herbicidal ratio of 40% or higher and lower than 70%)	0 (Herbicidal ratio of 5% or lower (almost no effect))	0 (Herbicidal ratio of 5% or lower (almost no effect))	5 (Herbicidal ratio of 90% or more (almost completely withered))	5 (Herbicidal ratio of 90% or more (almost completely withered))	0 (Herbicidal ratio of 5% or lower (almost no effect))	2 (Herbicidal ratio of 20% or higher and lower than 40%)	5 (Herbicidal ratio of 90% or more (almost completely withered))	0 (Herbicidal ratio of 5% or lower (almost no effect))	
CON=C(CC1CC(O)=C(c2c(C)cc(-c3ccccc3)cc2C)C1=O)C1CC1 (mixture of isomers) [9-028]	5 (Herbicidal ratio of 90% or more (almost completely withered))	5 (Herbicidal ratio of 90% or more (almost completely withered))	5 (Herbicidal ratio of 90% or more (almost completely withered))	5 (Herbicidal ratio of 90% or more (almost completely withered))	5 (Herbicidal ratio of 90% or more (almost completely withered))	0 (Herbicidal ratio of 5% or lower (almost no effect))	0 (Herbicidal ratio of 5% or lower (almost no effect))	0 (Herbicidal ratio of 5% or lower (almost no effect))	0 (Herbicidal ratio of 5% or lower (almost no effect))	5 (Herbicidal ratio of 90% or more (almost completely withered))	4 (Herbicidal ratio of 70% or higher and lower than 90%)	1 (Herbicidal ratio of 5% or higher and lower than 20%)	4 (Herbicidal ratio of 70% or higher and lower than 90%)	5 (Herbicidal ratio of 90% or more (almost completely withered))	1 (Herbicidal ratio of 5% or higher and lower than 20%)	
CON=C(C)CC1(C)CC(O)=C(c2c(C)cc(C)cc2C)C1=O (mixture of isomers) [11-002]	2 (Herbicidal ratio of 20% or higher and lower than 40%)	2 (Herbicidal ratio of 20% or higher and lower than 40%)	5 (Herbicidal ratio of 90% or more (almost completely withered))	3 (Herbicidal ratio of 40% or higher and lower than 70%)	4 (Herbicidal ratio of 70% or higher and lower than 90%)	0 (Herbicidal ratio of 5% or lower (almost no effect))	0 (Herbicidal ratio of 5% or lower (almost no effect))	0 (Herbicidal ratio of 5% or lower (almost no effect))	0 (Herbicidal ratio of 5% or lower (almost no effect))	4 (Herbicidal ratio of 70% or higher and lower than 90%)	5 (Herbicidal ratio of 90% or more (almost completely withered))	0 (Herbicidal ratio of 5% or lower (almost no effect))	0 (Herbicidal ratio of 5% or lower (almost no effect))	2 (Herbicidal ratio of 20% or higher and lower than 40%)	1 (Herbicidal ratio of 5% or higher and lower than 20%)	
CC(CC1CC(O)=C(c2c(C)cc(C)cc2C)C1=O)=NOCc1ccccc1Cl (centres unmarked) [1-113]																Herbicidal effect grade, A: Echinochloa oryzacola Vasing. [1]: 5 (Herbicidal ratio of 90% or more (almost completely withered)); Effect grade on crop, a: transplanted rice plant (transplanted rice plant): 3 (Herbicidal ratio of 40% or higher and lower than 70%); H: Echinochloa crus-galli var. crus-galli, herbicidal effect grade ([3]; 320 g/ha): 0 (Herbicidal ratio of 5% or lower (almost no effect)); L: Apera spica-venti, herbicidal effect grade (Apera spica-venti; 320 g/ha): 5 (Herbicidal ratio of 90% or more (almost completely withered)); M: Abutilon theophrasti, herbicidal effect grade (Abutilon theophrasti [4]; 320 g/ha): 0 (Herbicidal ratio of 5% or lower (almost no effect)); O: Chenopodium album, herbicidal effect grade (Chenopodium album; 320 g/ha): 0 (Herbicidal ratio of 5% or lower (almost no effect)); Q: Galium spurium, herbicidal effect grade (Galium spurium; 320 g/ha): 0 (Herbicidal ratio of 5% or lower (almost no effect)); d: soybean, effect grade on crop (soybean [5]; 320 g/ha): 0 (Herbicidal ratio of 5% or lower (almost no effect)); F: Digitaria ciliaris, herbicidal effect (criteria 0-5) (Digitaria ciliaris): 5 (Herbicidal ratio of 90% or more (almost completely withered)); I: Avena fatua, herbicidal effect (criteria 0-5) (Avena fatua): 4 (Herbicidal ratio of 70% or higher and lower than 90%); M: Abutilon theophrasti, herbicidal effect (criteria 0-5) (Abutilon theophrasti [6]): 1 (Herbicidal ratio of 5% or higher and lower than 20%); R: Veronica persica, herbicidal effect (criteria 0-5) (Veronica persica): 4 (Herbicidal ratio of 70% or higher and lower than 90%); c: corn, effect on crop (criteria 0-5) (corn): 0 (Herbicidal ratio of 5% or lower (almost no effect)); d: soybean, effect on crop (criteria 0-5) (soybean [7]): 0 (Herbicidal ratio of 5% or lower (almost no effect))
